Columns and labels:
[1] = tested on: RXF 393; set-up: method as in earlier work; settings: cited from earlier work
[2] = tested on: Melanoma; set-up: method as in earlier work; settings: Melanoma subpanel; read-out: GI50 MG_MID; cited from earlier work
[3] = tested on: MDA-MB-31/ATCC; set-up: method as in earlier work; settings: cited from earlier work
[4] = tested on: Breast cancer; set-up: method as in earlier work; settings: Breast cancer subpanel; read-out: GI50 MG_MID; cited from earlier work
[5] = tested on: HCC-2998; set-up: method as in earlier work; settings: cited from earlier work
[6] = tested on: HCT-15; set-up: method as in earlier work; settings: cited from earlier work
[7] = tested on: HOP-62; set-up: method as in earlier work; settings: cited from earlier work
[8] = tested on: NSC lung cancer; set-up: method as in earlier work; settings: NSC lung cancer subpanel; read-out: GI50 MG_MID; cited from earlier work
[9] = tested on: NCI-H522; set-up: method as in earlier work; settings: cited from earlier work
[10] = tested on: HCT-116; set-up: method as in earlier work; settings: cited from earlier work
[11] = tested on: OVCAR-5; set-up: method as in earlier work; settings: cited from earlier work
[12] = tested on: NCI-H460; set-up: method as in earlier work; settings: cited from earlier work
[13] = tested on: SK-MEL-2; set-up: method as in earlier work; settings: cited from earlier work
[14] = tested on: UO-31; set-up: method as in earlier work; settings: cited from earlier work
[15] = tested on: HOP-92; set-up: method as in earlier work; settings: cited from earlier work
[16] = tested on: T-47D; set-up: method as in earlier work; settings: cited from earlier work
[17] = tested on: MDA-MB-435; set-up: method as in earlier work; settings: cited from earlier work
[18] = tested on: NCI-60 cancer cell line panel; set-up: method as in earlier work; settings: mean graph midpoint, full panel; read-out: GI50 MG_MID60; cited from earlier work
[19] = tested on: OVCAR-8; set-up: method as in earlier work; settings: cited from earlier work
[20] = tested on: SW-620; set-up: method as in earlier work; settings: cited from earlier work
[21] = tested on: SF-268; set-up: method as in earlier work; settings: cited from earlier work
[22] = tested on: ACHN; set-up: method as in earlier work; settings: cited from earlier work
[23] = tested on: Ovarian cancer; set-up: method as in earlier work; settings: Ovarian cancer subpanel; read-out: GI50 MG_MID; cited from earlier work
[24] = tested on: KM12; set-up: method as in earlier work; settings: cited from earlier work
[25] = tested on: NCI-H23; set-up: method as in earlier work; settings: cited from earlier work
[26] = tested on: TK-10; set-up: method as in earlier work; settings: cited from earlier work
[27] = tested on: HS 578T; set-up: method as in earlier work; settings: cited from earlier work
[28] = tested on: U251; set-up: method as in earlier work; settings: cited from earlier work
[29] = tested on: UACC-62; set-up: method as in earlier work; settings: cited from earlier work
[30] = tested on: Colon Cancer; set-up: method as in earlier work; settings: Colon Cancer subpanel; read-out: GI50 MG_MID; cited from earlier work
[31] = tested on: CAKI-1; set-up: method as in earlier work; settings: cited from earlier work
[32] = tested on: SK-MEL-5; set-up: method as in earlier work; settings: cited from earlier work
[33] = tested on: NCI-H226; set-up: method as in earlier work; settings: cited from earlier work
[34] = tested on: IGROV1; set-up: method as in earlier work; settings: cited from earlier work
[35] = tested on: MCF7; set-up: method as in earlier work; settings: cited from earlier work
[36] = tested on: OVCAR-4; set-up: method as in earlier work; settings: cited from earlier work
[37] = tested on: NCI/ADR-RES; set-up: method as in earlier work; settings: cited from earlier work
[38] = tested on: SN12C; set-up: method as in earlier work; settings: cited from earlier work
[39] = tested on: MALME-3M; set-up: method as in earlier work; settings: cited from earlier work
[40] = tested on: OVCAR-3; set-up: method as in earlier work; settings: cited from earlier work
[41] = tested on: CNS cancer; set-up: method as in earlier work; settings: CNS cancer subpanel; read-out: GI50 MG_MID; cited from earlier work
[42] = tested on: M14; set-up: method as in earlier work; settings: cited from earlier work
[43] = tested on: SK-OV-3; set-up: method as in earlier work; settings: cited from earlier work
[44] = tested on: SK-MEL-28; set-up: method as in earlier work; settings: cited from earlier work
[45] = tested on: DU-145; set-up: method as in earlier work; settings: cited from earlier work
[46] = tested on: Renal Cancer; set-up: method as in earlier work; settings: Renal cancer subpanel; read-out: GI50 MG_MID; cited from earlier work
[47] = tested on: LOX IMVI; set-up: method as in earlier work; settings: cited from earlier work
[48] = tested on: SF-539; set-up: method as in earlier work; settings: cited from earlier work
[49] = tested on: HT29; set-up: method as in earlier work; settings: cited from earlier work
[50] = tested on: A498; set-up: method as in earlier work; settings: cited from earlier work
[51] = tested on: UACC-257; set-up: method as in earlier work; settings: cited from earlier work
[52] = tested on: 786-0; set-up: method as in earlier work; settings: cited from earlier work
[53] = tested on: Prostate cancer; set-up: method as in earlier work; settings: Prostate cancer subpanel; read-out: GI50 MG_MID; cited from earlier work
[54] = tested on: SNB-19; set-up: method as in earlier work; settings: cited from earlier work
[55] = tested on: COLO 205; set-up: method as in earlier work; settings: cited from earlier work
[56] = tested on: SNB-75; set-up: method as in earlier work; settings: cited from earlier work
[57] = tested on: PC-3; set-up: method as in earlier work; settings: cited from earlier work
[58] = tested on: BT-549; set-up: method as in earlier work; settings: cited from earlier work
[59] = tested on: A549/ATCC; set-up: method as in earlier work; settings: cited from earlier work
[60] = tested on: EKVX; set-up: method as in earlier work; settings: cited from earlier work
[61] = tested on: MDA-MB-468; set-up: method as in earlier work; settings: cited from earlier work
[62] = tested on: SF-295; set-up: method as in earlier work; settings: cited from earlier work
[63] = tested on: chorioallantoic membrane; settings: in vivo
Description: In this assay, the irritation potential may range from 0 to 21, with 0 being non-irritant and 21 being the most irritant. […] The irritation score was established according to Luepke scale: 0–0.9 indicates non-irritant, 1–4.9 indicates weakly irritant, 5–8.9 indicates moderately irritant, while 9–21 means strongly irritant (Table 6) [88, 89].
The in vivo Hen’s Egg Chorioallantoic Membrane Test (HET-CAM) assay determines a potential irritant effect on the vascular plexus of the chorioallantoic membrane [94]. The HET-CAM method was carried out following ICCVAM recommendations published in November 2016 in Appendix G and adapted to our conditions [88, 95, 96]. Thus, a volume of 300 µL of control or test solution was applied and the modifications produced at the CAM level were monitored by means of stereomicroscopy (Discovery 8 Stereomicroscope, Zeiss), registering significant images (Axio CAM 105 color, Zeiss), before application after 5 min of contact with the samples. All images were processed using Zeiss ZEN software, Gimp 2.8, and ImageJ software.
Negative control was represented by distilled water and solvent control DMSO 0.5%, and positive control by sodium lauryl sulphate (SLS) 0.5% in distillate water. The test substances were tested in concentrations of 1 µM.
Finally, the following reactions were: hemorrhage—H (blood vessel bleeding), vascular lysis—L (disintegration of blood vessels), coagulation—C (intra- or extra-vascular protein denaturizing). A variety of analysis methods may be used to assess irritancy potential of test substances. One analysis method that has been used extensively is an irritation score (IS). The formula used to generate an IS value is:(1) IS=5×301−Sec H/300+7×300−Sec L/300+9×301−Sec C/300 where: H = hemorrhage; L = vessel lysis; C = coagulation; hemorrhage time (Sec H) = onset of hemorrhage reactions on CAM (in seconds); lysis time (Sec L) = onset of vessel lysis on CAM (in seconds); coagulation time (Sec C) = onset of coagulation formation on CAM (in seconds). Means values are obtained. […] The IS values range on a scale between 0 and 21.

O=c1[nH]cc(F)c(=O)[nH]1 [Compound 5-FU, 5-fluorouracil]
GI50 [1]: 2610 nM
GI50 [2]: 7070 nM
GI50 [3]: 6600 nM
GI50 [4]: 7030 nM
GI50 [5]: 50 nM
GI50 [6]: 110 nM
GI50 [7]: 390 nM
GI50 [8]: 20100 nM
GI50 [9]: 7270 nM
GI50 [10]: 220 nM
GI50 [11]: 10900 nM
GI50 [12]: 50 nM
GI50 [13]: 56700 nM
GI50 [14]: 1420 nM
GI50 [15]: 77900 nM
GI50 [16]: 8120 nM
GI50 [17]: 70 nM
GI50 [18]: 6970 nM
GI50 [19]: 1740 nM
GI50 [20]: 920 nM
GI50 [21]: 1620 nM
GI50 [22]: 270 nM
GI50 [23]: 5770 nM
GI50 [24]: 210 nM
GI50 [25]: 330 nM
GI50 [26]: 1120 nM
GI50 [27]: 9770 nM
GI50 [28]: 920 nM
GI50 [29]: 520 nM
GI50 [30]: 260 nM
GI50 [31]: 70 nM
GI50 [32]: 460 nM
GI50 [33]: 54700 nM
GI50 [34]: 1220 nM
GI50 [35]: 70 nM
GI50 [36]: 4430 nM
GI50 [37]: 310 nM
GI50 [38]: 490 nM
GI50 [39]: 50 nM
GI50 [40]: 10 nM
GI50 [41]: 17000 nM
GI50 [42]: 980 nM
GI50 [43]: 21800 nM
GI50 [44]: 1030 nM
GI50 [45]: 360 nM
GI50 [46]: 880 nM
GI50 [47]: 240 nM
GI50 [48]: 60 nM
GI50 [49]: 170 nM
GI50 [50]: 350 nM
GI50 [51]: 3550 nM
GI50 [52]: 720 nM
GI50 [53]: 1360 nM
GI50 [54]: 3810 nM
GI50 [55]: 150 nM
GI50 [56]: 78700 nM
GI50 [57]: 2360 nM
GI50 [58]: 10600 nM
GI50 [59]: 180 nM

COc1cccc2c1C(=O)c1c(O)c3c(c(O)c1C2=O)C[C@@](O)(C(=O)CO)C[C@@H]3O[C@H]1C[C@H](N)[C@H](O)[C@H](C)O1 [DRB, doxorubicin]
GI50 [1]: 100 nM
GI50 [2]: 150 nM
GI50 [3]: 510 nM
GI50 [4]: 190 nM
GI50 [5]: 260 nM
GI50 [6]: 6460 nM
GI50 [7]: 70 nM
GI50 [8]: 110 nM
GI50 [9]: 30 nM
GI50 [10]: 80 nM
GI50 [11]: 410 nM
GI50 [12]: 20 nM
GI50 [13]: 170 nM
GI50 [14]: 490 nM
GI50 [15]: 100 nM
GI50 [16]: 60 nM
GI50 [17]: 250 nM
GI50 [18]: 380 nM
GI50 [19]: 100 nM
GI50 [20]: 90 nM
GI50 [21]: 100 nM
GI50 [22]: 80 nM
GI50 [23]: 1260 nM
GI50 [24]: 270 nM
GI50 [25]: 150 nM
GI50 [60]: 410 nM
GI50 [27]: 330 nM
GI50 [28]: 40 nM
GI50 [29]: 120 nM
GI50 [31]: 950 nM
GI50 [32]: 80 nM
GI50 [33]: 50 nM
GI50 [34]: 170 nM
GI50 [35]: 30 nM
GI50 [36]: 370 nM
GI50 [37]: 7160 nM
GI50 [38]: 70 nM
GI50 [39]: 120 nM
GI50 [40]: 390 nM
GI50 [41]: 80 nM
GI50 [61]: 50 nM
GI50 [42]: 180 nM
GI50 [43]: 220 nM
GI50 [44]: 210 nM
GI50 [45]: 110 nM
GI50 [46]: 270 nM
GI50 [47]: 70 nM
GI50 [48]: 120 nM
GI50 [49]: 120 nM
GI50 [50]: 100 nM
GI50 [51]: 140 nM
GI50 [62]: 100 nM
GI50 [52]: 130 nM
GI50 [53]: 210 nM
GI50 [54]: 40 nM
GI50 [55]: 180 nM
GI50 [56]: 70 nM
GI50 [57]: 320 nM
GI50 [58]: 230 nM
GI50 [59]: 60 nM

CCCCCCCCCCCCOS(=O)(=O)[O-].[Na+] [SLS 0.5%, sodium laurylsulphate]
Type of Effect [63]: Strong irritant

— paper PMC8536124 (International Journal of Molecular Sciences, 2021)
